What all share (assay): Glasshouse assay for herbicidal activity (pre- and post-emergence), percentage phytotoxicity
Common to all, as to format: in vivo

One test has as its system Avena fatua (AVEFA). The note with it: Avena fatua. Put shortly: (§1)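 Visually rated damage, 0–100%. PRE spray 1 d after sowing, scored 20 DAA; POST spray ~12 d, scored 15 DAA. Glasshouse at 65% humidity, 16 h day.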
In another test the test system is Lolium perenne (LOLPE). The note with it: Lolium perenne. In a few lines: as §1
Test [1] has as its system Echinochloa crus-galli (ECHCG). The note with it: Echinochloa crus-galli. Put shortly:
as §1

Test [2] relates to Alopecurus myosuroides (ALOMY). The note with it: Alopecurus myosuroides. Put shortly:
as §1

Where [3] appears, read: post-emergence, 360 h, Rate 250 g/ha, post-emergence, visual assessment 15 DAA, 100%=total damage, 0%=no damage, read-out: Post-emergence herbicidal activity (percentage phytotoxicity) AVEFA POST.
Setting [4] is: pre-emergence, 480 h, Rate 250 g/ha, pre-emergence, visual assessment 20 DAA, 100%=total damage, 0%=no damage, read-out: Pre-emergence herbicidal activity (percentage phytotoxicity) AVEFA PRE.
[5] abbreviates: post-emergence, 360 h, Rate 250 g/ha, post-emergence, visual assessment 15 DAA, 100%=total damage, 0%=no damage, read-out: Post-emergence herbicidal activity (percentage phytotoxicity) LOLPE POST.
Setting [6] is: pre-emergence, 480 h, Rate 250 g/ha, pre-emergence, visual assessment 20 DAA, 100%=total damage, 0%=no damage, read-out: Pre-emergence herbicidal activity (percentage phytotoxicity) LOLPE PRE.
[7] abbreviates: post-emergence, 360 h, Rate 250 g/ha, post-emergence, visual assessment 15 DAA, 100%=total damage, 0%=no damage, read-out: Post-emergence herbicidal activity (percentage phytotoxicity) ECHCG POST.
The mark [8] stands for this setting: pre-emergence, 480 h, Rate 250 g/ha, pre-emergence, visual assessment 20 DAA, 100%=total damage, 0%=no damage, read-out: Pre-emergence herbicidal activity (percentage phytotoxicity) ECHCG PRE.
Where [9] appears, read: post-emergence, 360 h, Rate 250 g/ha, post-emergence, visual assessment 15 DAA, 100%=total damage, 0%=no damage, read-out: Post-emergence herbicidal activity (percentage phytotoxicity) ALOMY POST.
[10] abbreviates: pre-emergence, 480 h, Rate 250 g/ha, pre-emergence, visual assessment 20 DAA, 100%=total damage, 0%=no damage, read-out: Pre-emergence herbicidal activity (percentage phytotoxicity) ALOMY PRE.
Setting [11] is: post-emergence, 360 h, Rate 250 g/ha, post-emergence, assessed visually 15 DAA, 100%=total damage, 0%=no damage, read-out: Post-emergence herbicidal activity (percentage phytotoxicity) AVEFA POST.
[12] abbreviates: pre-emergence, 480 h, Rate 250 g/ha, pre-emergence, assessed visually 20 DAA, 100%=total damage, 0%=no damage, read-out: Pre-emergence herbicidal activity (percentage phytotoxicity) AVEFA PRE.
[13] abbreviates: post-emergence, 360 h, Rate 250 g/ha, post-emergence, assessed visually 15 DAA, 100%=total damage, 0%=no damage, read-out: Post-emergence herbicidal activity (percentage phytotoxicity) LOLPE POST.
Where [14] appears, read: pre-emergence, 480 h, Rate 250 g/ha, pre-emergence, assessed visually 20 DAA, 100%=total damage, 0%=no damage, read-out: Pre-emergence herbicidal activity (percentage phytotoxicity) LOLPE PRE.
Setting [15] is: post-emergence, 360 h, Rate 250 g/ha, post-emergence, assessed visually 15 DAA, 100%=total damage, 0%=no damage, read-out: Post-emergence herbicidal activity (percentage phytotoxicity) ECHCG POST.
[16] abbreviates: pre-emergence, 480 h, Rate 250 g/ha, pre-emergence, assessed visually 20 DAA, 100%=total damage, 0%=no damage, read-out: Pre-emergence herbicidal activity (percentage phytotoxicity) ECHCG PRE.
The mark [17] stands for this setting: post-emergence, 360 h, Rate 250 g/ha, post-emergence, assessed visually 15 DAA, 100%=total damage, 0%=no damage, read-out: Post-emergence herbicidal activity (percentage phytotoxicity) ALOMY POST.
Setting [18] is: pre-emergence, 480 h, Rate 250 g/ha, pre-emergence, assessed visually 20 DAA, 100%=total damage, 0%=no damage, read-out: Pre-emergence herbicidal activity (percentage phytotoxicity) ALOMY PRE.

Each structure is given as a SMILES string. Like-named read-outs stand apart in the source and are kept apart here.

`C#CCN(C)C(=O)CC1CC(=O)C(c2c(C)cc(-c3ccc(Cl)cn3)cc2C)C1=O` (centres unmarked) [Compound B369]: the pest or weed control at 250 g/ha in the test on Avena fatua (AVEFA) (setting [3]) was 100%; with Avena fatua (AVEFA) (setting [4]) it was 100%; with Lolium perenne (LOLPE) (setting [5]), 90%; with Lolium perenne (LOLPE) (setting [6]), 100%; in test [1] (setting [7]), 100%; in test [1] (setting [8]), 100%. The pest or weed control at 250 g/ha in test [2] (setting [9]) is 90%; in test [2] (setting [10]), 100%.

For the compound `Cc1cc(C)c(C2C(=O)CC(CC(=O)NCC3(F)COC3)C2=O)c(C)c1` (centres unmarked) [Compound A180], the pest or weed control at 250 g/ha with Avena fatua (AVEFA) (post-emergence, 360 h, post-emergence, 250 g/ha, 15 DAA, visual score (100%=total damage; 0%=no damage), read-out: AVEFA POST herbicidal activity (percentage phytotoxicity)) was determined as 70%; in the test with Avena fatua (AVEFA) (pre-emergence, 480 h, pre-emergence, 250 g/ha, 20 DAA, visual score (100%=total damage; 0%=no damage), read-out: AVEFA PRE herbicidal activity (percentage phytotoxicity)) it was 0%; with Lolium perenne (LOLPE) (post-emergence, 360 h, post-emergence, 250 g/ha, 15 DAA, visual score (100%=total damage; 0%=no damage), read-out: LOLPE POST herbicidal activity (percentage phytotoxicity)) it was 30%; with Lolium perenne (LOLPE) (pre-emergence, 480 h, pre-emergence, 250 g/ha, 20 DAA, visual score (100%=total damage; 0%=no damage), read-out: LOLPE PRE herbicidal activity (percentage phytotoxicity)) it was 0%; in test [1] (post-emergence, 360 h, post-emergence, 250 g/ha, 15 DAA, visual score (100%=total damage; 0%=no damage), read-out: ECHCG POST herbicidal activity (percentage phytotoxicity)), 70%; in test [1] (pre-emergence, 480 h, pre-emergence, 250 g/ha, 20 DAA, visual score (100%=total damage; 0%=no damage), read-out: ECHCG PRE herbicidal activity (percentage phytotoxicity)), 20%. The pest or weed control at 250 g/ha in test [2] (post-emergence, 360 h, post-emergence, 250 g/ha, 15 DAA, visual score (100%=total damage; 0%=no damage), read-out: ALOMY POST herbicidal activity (percentage phytotoxicity)) is 70%; in test [2] (pre-emergence, 480 h, pre-emergence, 250 g/ha, 20 DAA, visual score (100%=total damage; 0%=no damage), read-out: ALOMY PRE herbicidal activity (percentage phytotoxicity)), 40%.

On to `C#Cc1cc(C)c(C2C(=O)CC(CC(=O)NC(C)C)C2=O)c(C)c1` (centres unmarked) [Compound A42], for which the pest or weed control at 250 g/ha with Avena fatua (AVEFA) (setting [11]) is 100%; with Avena fatua (AVEFA) (setting [12]), 100%; in the test with Lolium perenne (LOLPE) (setting [13]), 90%; in the test with Lolium perenne (LOLPE) (setting [14]) it was 100%; in test [1] (setting [15]) it was 80%; in test [1] (setting [16]) it was 100%. The pest or weed control at 250 g/ha in test [2] (setting [17]) and in test [2] (setting [18]) was 100% in each case.

For `C=CCNC(=O)CC1CC(=O)C(c2c(C)cc(-c3ncc(Cl)cc3F)cc2C)C1=O` (centres unmarked) [Compound B116], the pest or weed control at 250 g/ha was 100% in the test with Avena fatua (AVEFA) (post-emergence, 360 h, 250 g/ha, post-emergence, 15 DAA, visual assessment (100%=total damage, 0%=no damage), read-out: Post-emergence herbicidal activity (percentage phytotoxicity) AVEFA POST); 90% in the test on Avena fatua (AVEFA) (pre-emergence, 480 h, 250 g/ha, pre-emergence, 20 DAA, visual assessment (100%=total damage, 0%=no damage), read-out: Pre-emergence herbicidal activity (percentage phytotoxicity) AVEFA PRE); 100% with Lolium perenne (LOLPE) (post-emergence, 360 h, 250 g/ha, post-emergence, 15 DAA, visual assessment (100%=total damage, 0%=no damage), read-out: Post-emergence herbicidal activity (percentage phytotoxicity) LOLPE POST); 100% with Lolium perenne (LOLPE) (pre-emergence, 480 h, 250 g/ha, pre-emergence, 20 DAA, visual assessment (100%=total damage, 0%=no damage), read-out: Pre-emergence herbicidal activity (percentage phytotoxicity) LOLPE PRE); 100% in test [1] (post-emergence, 360 h, 250 g/ha, post-emergence, 15 DAA, visual assessment (100%=total damage, 0%=no damage), read-out: Post-emergence herbicidal activity (percentage phytotoxicity) ECHCG POST); 100% in test [1] (pre-emergence, 480 h, 250 g/ha, pre-emergence, 20 DAA, visual assessment (100%=total damage, 0%=no damage), read-out: Pre-emergence herbicidal activity (percentage phytotoxicity) ECHCG PRE). The pest or weed control at 250 g/ha in test [2] (post-emergence, 360 h, 250 g/ha, post-emergence, 15 DAA, visual assessment (100%=total damage, 0%=no damage), read-out: Post-emergence herbicidal activity (percentage phytotoxicity) ALOMY POST) was found to be 100%; in test [2] (pre-emergence, 480 h, 250 g/ha, pre-emergence, 20 DAA, visual assessment (100%=total damage, 0%=no damage), read-out: Pre-emergence herbicidal activity (percentage phytotoxicity) ALOMY PRE) it was 100%.

Turning to `COCCNC(=O)CC1CC(=O)C(c2c(C)cc(-n3cc(Cl)cn3)cc2C)C1=O` (centres unmarked) [Compound A77], the pest or weed control at 250 g/ha stood at 90% in the test with Avena fatua (AVEFA) (setting [11]); 80% in the test with Avena fatua (AVEFA) (setting [12]); 80% in the test with Lolium perenne (LOLPE) (setting [13]); 80% with Lolium perenne (LOLPE) (setting [14]); 100% in test [1] (setting [15]); 100% in test [1] (setting [16]). Also, the pest or weed control at 250 g/ha in test [2] (setting [17]) came to 90%; in test [2] (setting [18]), 80%.

For `C#CCNC(=O)CC1CC(=O)C(c2c(C)cc(-c3ncc(Cl)cc3F)cc2C)C1=O` (centres unmarked) [Compound A69], the pest or weed control at 250 g/ha (with Avena fatua (AVEFA) (setting [11]); in the test with Avena fatua (AVEFA) (setting [12]); in the test on Lolium perenne (LOLPE) (setting [13]); in the test with Lolium perenne (LOLPE) (setting [14]); in test [1] (setting [15]); in test [1] (setting [16])) was 100% in each case. Further, the pest or weed control at 250 g/ha in test [2] (setting [17]) and in test [2] (setting [18]) was 100% each time.

With `COCC(C)(C)NC(=O)CC1CC(=O)C(c2c(C)cc(-c3ccc(Cl)cn3)cc2C)C1=O` (centres unmarked) [Compound B364], the pest or weed control at 250 g/ha with Avena fatua (AVEFA) (setting [3]) stood at 90%; in the test with Avena fatua (AVEFA) (setting [4]), 80%; with Lolium perenne (LOLPE) (setting [5]), 90%; in the test on Lolium perenne (LOLPE) (setting [6]), 90%; in test [1] (setting [7]), 90%; in test [1] (setting [8]) it was 90%. Further, the pest or weed control at 250 g/ha in test [2] (setting [9]) and in test [2] (setting [10]) was 100% in each case.

For the origin of these results see patent US10206394B2, “Herbicidal compounds” (Syngenta Participations AG, priority 2014, dated 2019).
